Measured values: EP0478101B1, “Therapeutic use of peptides having thrombospondin-like activity” (W.R. Grace & Co.-Conn., priority 1990, dated 1992)
Positions of bridges follow the written chain, without caps; N, C: chain ends. Residues, ends and D or L forms follow the SMILES beside them. No end group written: not given here.

What was measured:
Test in all cases: Cell adhesion to peptide-coated wells compared with thrombospondin
Format in all cases: cell-based
Conditions in all cases: two micrograms of peptide dried on well, 200,000 cells per well, 30 minutes at 37°C, relative to thrombospondin
[1] = test system: A549 Human Lung Adenocarcinoma
Procedure: (§1) In this example a series of peptides were tested to determine the abilities of the peptides to bind various cells as compared to thrombospondin. It is believed that thrombospondin acts in metastasis through its adhesive properties. An assay was developed, generally in accordance with the disclosure of Tuszynski et al. (Anal. Bio. (1990) 184:189-91) which evaluates the ability of cells to adhere to the thrombospondin fragments or analogs of the invention. In this assay, thrombospondin (purified by the method of Tuszynski et al., J. Biol. Chem. (1985) 260:12240-5) served as a positive control, bovine serum albumin (BSA) (Sigma Chemical Co.) and the peptides ANKHYF and VCTGSC and TCVCGS served as negative controls. The cell types evaluated were B16F10 mouse melanoma cells, A549 human lung adrenocarcinoma cells, bovine aortic smooth muscle cells, and rabbit smooth muscle cells.
(§2) Thrombospondin analogs of the invention were synthesized as described in Examples 1-4. Two micrograms of peptide or control proteins were air dried overnight on the wells of a 96-well microtiter plate. Wells were then washed with HEPES-buffered saline and blocked for 1 hour with 1% fatty acid free BSA in HEPES-buffered saline.
(§3) The various cells were grown and harvested during log phase of growth using standard procedures. The harvested cells were washed two times in serum-free Dulbecco's minimum essential medium (DMEM) (Flow Laboratories) and suspended in HEPES-buffered saline, containing 5 mM glucose and 100 µM MgCl2 at a final concentration of […]. Of the cell suspension 200,000 cells per well was added to each well of the microtiter dish containing the various ligands and the dish incubated at 37°C in a CO2 incubator for 30 minutes. Nonadherent cells were removed by aspiration and the wells washed three times with 200 µl of PBS. The total cell-associated protein was determined by dissolving the attached cells directly in the microtiter wells with 200 µl of the Pierce BCA working solution (Pierce Chem. Co. Booklet No. 23225 (1987)). The plate was covered with an adhesive mylar sheet (Flow Labs) and incubated at 60°C for 30 minutes. Plates were allowed to cool to room temperature, cover sheets were removed, and the absorbance of each well was determined at 562 nm with a microtiter plate reader (Biotek, Burlington, Vermont.) Absorbances were converted to number of adherent cells by means of an empirically determined conversion factor.

[2] = test system: B16-F10 Mouse Melanoma
Procedure: as §1, §2, §3

[3] = test system: Bovine Aortic Endothelia 1 Cells
Procedure: [Worded in the source for another cell line; this cell line is reported under the same test.] as §1, §2, §3

[4] = test system: Rabbit Smooth Muscle
Procedure: as §1, §2, §3

| Molecule | Percent of TSP-adherent Cells [1] [%] | Percent of TSP-adherent Cells [2] [%] | Percent of TSP-adherent Cells [3] [%] | Percent of TSP-adherent Cells [4] [%] |
| --- | --- | --- | --- | --- |
| CC(C)[C@H](NC(=O)[C@H](CCCNC(=N)N)NC(=O)[C@@H](N)CS)C(=O)N[C@H](C(=O)N[C@@H](CS)C(=O)NCC(=O)O)[C@@H](C)O [CRVTCG (SEQ ID NO:5), CRVTCG] (H-CRVTCG-OH) | 79 | 92 | 80 | 82 |
| C[C@@H](O)[C@H](NC(=O)[C@H](CO)NC(=O)[C@@H](N)CS)C(=O)N[C@@H](CO)C(=O)N[C@@H](CS)C(=O)NCC(=O)O [CSTSCG (SEQ ID NO:4), CSTSCG] (H-CSTSCG-OH) | 23 | 37 | 39 | 22 |
| C[C@@H](O)[C@H](NC(=O)[C@H](CO)NC(=O)[C@@H](N)CS)C(=O)N[C@@H](CO)C(=O)N[C@@H](CS)C(=O)N[C@@H](CCCNC(=N)N)C(=O)O [CSTSCR (SEQ ID NO:3), CSTSCR] (H-CSTSCR-OH) | 104 | 39 | 65 | 82 |
| CC(C)[C@H](NC(=O)[C@H](CO)NC(=O)[C@@H](N)CS)C(=O)N[C@H](C(=O)N[C@@H](CS)C(=O)NCC(=O)O)[C@@H](C)O [CSVTCG (SEQ ID NO:1), CSVTCG] (H-CSVTCG-OH) | 29 | 40 | 49 | 44 |
| CC(C)[C@H](NC(=O)[C@H](CO)NC(=O)[C@@H](N)CS)C(=O)N[C@H](C(=O)N[C@@H](CS)C(=O)N[C@@H](CCCNC(=N)N)C(=O)O)[C@@H](C)O [CSVTCR (SEQ ID NO:2), CSVTCR] (H-CSVTCR-OH) | 90 | 92 | 99 | 159 |
| CC(C)[C@@H]1NC(=O)[C@H](CO)NC(=O)[C@@H](N)CSSC[C@@H](C(=O)NCC(=O)O)NC(=O)[C@H]([C@@H](C)O)NC1=O [Cyclic CSVTCG (SEQ ID NO:1), cyclic CSVTCG-Acid] (H-CSVTCG-OH; disulfide 1-5) | 29 | 30 | 25 | 43 |
| CC(C)[C@H](NC(=O)[C@H](CS)NC(=O)[C@@H](N)[C@@H](C)O)C(=O)N[C@@H](CS)C(=O)NCC(=O)N[C@@H](CO)C(=O)O [TCVCGS, reference compound] (H-TCVCGS-OH) | 10 | 10 | 6 | 8 |
| CC(C)[C@H](N)C(=O)N[C@@H](CS)C(=O)N[C@H](C(=O)NCC(=O)N[C@@H](CO)C(=O)N[C@@H](CS)C(=O)O)[C@@H](C)O [VCTGSC, reference compound] (H-VCTGSC-OH) | 8 | 2 | 3 | 17 |
| ANKHYF [ANKHYF, reference compound] | 10 | 8 | 0 | 17 |
| ASVTAR [ASVTAR (SEQ ID NO:7), ASVTAR] | – | 39 | – | – |
| Blocked CSVTCG [Blocked CSVTCG (SEQ ID NO:1)] | 44 | 32 | 22 | 46 |
